Source: publication PMC4682037, “Signal transduction in light–oxygen–voltage receptors lacking the adduct-forming cysteine residue” (Nature Communications, 2015)

What was measured:
BAT-LOV* [1] = target: T1, BAT-LOV* (Halorubrum hochstenium, UniProt M0FIW0); assay: reconstitution with excess flavin, absorption spectroscopy, SEC; type: binding; details: incubated at least 12 h in 0.5 M NaCl, unbound flavin removed by 10 kDa filter
T1 construct: gene C467_03291; isolated LOV* domain, residues 141-275, synthetic gene, N-terminal His6 tag (pET28a), E. coli BL21(DE3), endogenous flavin removed by Q XL, monomer; full-length protein also has receiver, GAF and HTH modules
T1 sequence (M0FIW0 entry or part of it): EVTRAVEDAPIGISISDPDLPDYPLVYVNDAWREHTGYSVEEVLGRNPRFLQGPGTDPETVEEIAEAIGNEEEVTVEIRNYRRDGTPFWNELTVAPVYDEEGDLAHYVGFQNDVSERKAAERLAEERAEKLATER

[2] = target: T2, VVD-III (VVD Δ36, C108A:M135I:M165I) (Neurospora crassa, UniProt Q9C3Y6, C108A/M135I/M165I/Q182L); assay: photoreduction, SEC; type: binding; details: flavin bound on purification; 448-nm laser 30 mW, 50 mM Hepes pH 8, 150 mM NaCl
T2 construct: lacks the first 36 residues, C108A/M135I/M165I, pET28a, Ni:NTA purified from E. coli BL21(DE3)
T2 sequence (Q9C3Y6 entry or part of it C108A/M135I/M165I/Q182L): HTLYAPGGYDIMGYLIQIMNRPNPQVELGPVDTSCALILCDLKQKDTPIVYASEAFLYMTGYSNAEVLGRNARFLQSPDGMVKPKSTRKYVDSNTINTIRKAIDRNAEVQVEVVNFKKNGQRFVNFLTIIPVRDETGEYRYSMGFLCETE

[3] = target: T3, VVD-III (VVD Δ36, C108A:M135I:M165I) (Neurospora crassa, UniProt Q9C3Y6, Y40E/C108A/M135I/M165I); assay: photoreduction, SEC; type: binding; details: flavin bound on purification; 448-nm laser 30 mW, 50 mM Hepes pH 8, 150 mM NaCl
T3 construct: lacks the first 36 residues, C108A/M135I/M165I, pET28a, Ni:NTA purified from E. coli BL21(DE3)
T3 sequence (Q9C3Y6 entry or part of it Y40E/C108A/M135I/M165I): as the sequence (Q9C3Y6 entry or part of it C108A/M135I/M165I/Q182L) above, with Y4E, L146Q counted along it

BAT-LOV* [4] = target: T4, BAT-LOV* (Halorubrum hochstenium, UniProt M0FIW0, P188C); assay: photoreduction by absorption spectroscopy; type: binding; details: 448-nm laser; flavin presumably FAD as for the wild type
T4 construct: gene C467_03291; isolated LOV* domain, residues 141-275, synthetic gene, N-terminal His6 tag (pET28a), E. coli BL21(DE3), endogenous flavin removed by Q XL, monomer; full-length protein also has receiver, GAF and HTH modules
T4 sequence (M0FIW0 entry or part of it P188C): as the sequence (M0FIW0 entry or part of it) above, with P48C counted along it

BAT-LOV* [5] = target: T5, BAT-LOV* (Halorubrum hochstenium, UniProt M0FIW0, Y163F/W172F/Y247F); assay: FAD reconstitution, photoreduction by absorption spectroscopy, SEC; type: binding; details: BAT-III; 448-nm laser
T5 construct: gene C467_03291; isolated LOV* domain, residues 141-275, synthetic gene, N-terminal His6 tag (pET28a), E. coli BL21(DE3), endogenous flavin removed by Q XL, monomer; full-length protein also has receiver, GAF and HTH modules
T5 sequence (M0FIW0 entry or part of it Y163F/W172F/Y247F): as the sequence (M0FIW0 entry or part of it) above, with Y23F, W32F, Y107F counted along it

BAT-LOV* [6] = target: T1, BAT-LOV*; assay: reconstitution with excess flavin, absorption spectroscopy; type: binding; details: incubated at least 12 h in 0.5 M NaCl, unbound flavin removed by 10 kDa filter
[7] = target: the molecule itself; assay: SEC; VVD-III as purified from E. coli passed through a SEC column; flavin redox states separate; blue-coloured, NSQ-containing protein

Q: What does the source list for `Cc1cc2nc3c(=O)[nH]c(=O)nc-3n(C[C@H](O)[C@H](O)[C@H](O)COP(=O)(O)OP(=O)(O)OC[C@H]3O[C@@H](n4cnc5c(N)ncnc54)[C@H](O)[C@@H]3O)c2cc1C` [FAD]?
A: reconstitution with excess flavin, absorption spectroscopy, SEC (BAT-LOV* [1]; flavin-free protein elutes in extended conformation): could be reconstituted with either FAD, FMN or riboflavin after incubation with excess cofactor; photoreduction, SEC [2]: Substituting the conserved Gln182 that interacts with flavin N5 to Leu; photoreduction, SEC [3]: both the light-adapted NSQ and dark-adapted oxidized quinone states elute from SEC as monomers; photoreduction by absorption spectroscopy (BAT-LOV* [4]): BAT P188C photoreduces to the HQ with little NSQ intermediate; FAD reconstitution, photoreduction by absorption spectroscopy, SEC (BAT-LOV* [5]): recombinantly expressed, FAD-reconstituted (a) BAT-LOV* and (b) BAT-III (Y163F:W172F:Y247F)

Q: How did the “reconstitution with excess flavin, absorption spectroscopy, SEC” value (BAT-LOV* [1]) turn out when `Cc1cc2nc3c(=O)[nH]c(=O)nc-3n(C[C@H](O)[C@H](O)[C@H](O)COP(=O)(O)O)c2cc1C` [FMN] was run?
A: Its value is “could be reconstituted with either FAD, FMN or riboflavin after incubation with excess cofactor”.

Q: `Cc1cc2nc3c(=O)[nH]c(=O)nc-3n(C[C@H](O)[C@H](O)[C@H](O)CO)c2cc1C` [riboflavin] was tested. Which “reconstitution with excess flavin, absorption spectroscopy” value (BAT-LOV* [6]) did it give?
A: The value was “could be reconstituted with either FAD, FMN or riboflavin after incubation with excess cofactor”.

B1: VVD-III (VVD Δ36, C108A:M135I:M165I) (domain or fragment, Neurospora, UniProt Q9C3Y6 37-186, looked up)
chain: HTLYAPGGYDIMGYLIQIMNRPNPQVELGPVDTSCALILCDLKQKDTPIVYASEAFLYMTGYSNAEVLGRNARFLQSPDGMVKPKSTRKYVDSNTINTIRKAIDRNAEVQVEVVNFKKNGQRFVNFLTIIPVRDETGEYRYSMGFQCETE
notes: Vivid (VVD), LOV photoreceptor of Neurospora; lacks the first 36 N-terminal residues; C108A, M135I, M165I; Dark-adapted: oxidized quinone; light-adapted: neutral semiquinone (NSQ); also called Vivid; source: E. coli BL21(DE3), purified (Ni:NTA, SEC)
Q: How did the “stoichiometry N” value [7] turn out when B1 was run?
A: Its value is 2.
